Measurements: PubChem BioAssay AID2060512 (Molecular Pharmacology Branch, DTP, NCI, 2025)

System: 186277-243-T-J2-PDC complex spheroid viability
Assay: Anticancer human tumor 186277-243-T-J2-PDC patient-derived colon adenocarcinoma cell line growth inhibition [GQUAD]
Settings: for IC50: curve of first compound; for viability, T/C: stronger effect = lower value
How it was run: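 Viability of tumor cells grown as complex spheroids with endothelial and stromal cells, exposed to drug combinations. Top concentration at or near clinical Cmax (else 10 microM), diluted in half-log increments.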

[1] = second compound 0.0316 µM, first compound 0.0316 µM
[2] = second compound 0.0316 µM, first compound 0.1 µM
[3] = second compound 0.0316 µM, first compound 0.316 µM
[4] = second compound 0.0316 µM, first compound 1 µM
[5] = second compound 0.0316 µM, first compound 3.16 µM
[6] = second compound 0.0316 µM, first compound 10 µM
[7] = second compound 0.1 µM, first compound 0.0316 µM
[8] = second compound 0.1 µM, first compound 0.1 µM
[9] = second compound 0.1 µM, first compound 0.316 µM
[10] = second compound 0.1 µM, first compound 1 µM
[11] = second compound 0.1 µM, first compound 3.16 µM
[12] = second compound 0.1 µM, first compound 10 µM
[13] = second compound 0.316 µM, first compound 0.0316 µM
[14] = second compound 0.316 µM, first compound 0.1 µM
[15] = second compound 0.316 µM, first compound 0.316 µM
[16] = second compound 0.316 µM, first compound 1 µM
[17] = second compound 0.316 µM, first compound 3.16 µM
[18] = second compound 0.316 µM, first compound 10 µM
[19] = second compound 1 µM, first compound 0.0316 µM
[20] = second compound 1 µM, first compound 0.1 µM
[21] = second compound 1 µM, first compound 0.316 µM
[22] = second compound 1 µM, first compound 1 µM
[23] = second compound 1 µM, first compound 3.16 µM
[24] = second compound 1 µM, first compound 10 µM
[25] = second compound 3.16 µM, first compound 0.0316 µM
[26] = second compound 3.16 µM, first compound 0.1 µM
[27] = second compound 3.16 µM, first compound 0.316 µM
[28] = second compound 3.16 µM, first compound 1 µM
[29] = second compound 3.16 µM, first compound 3.16 µM
[30] = second compound 3.16 µM, first compound 10 µM
[31] = second compound 10 µM, first compound 0.0316 µM
[32] = second compound 10 µM, first compound 0.1 µM
[33] = second compound 10 µM, first compound 0.316 µM
[34] = second compound 10 µM, first compound 1 µM
[35] = second compound 10 µM, first compound 3.16 µM
[36] = second compound 10 µM, first compound 10 µM
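Wherever viability, T/C is given: 100% = DMSO vehicle control viability.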

COc1ccc([C@@H](O)c2cc(-c3ncnc4cc(N5CCOCC5)ccc34)c(F)cc2Cl)nn1 + Cc1cnc(CNC(=O)c2c(=O)c3ccc(N4CCCN(C)CC4)nc3n3c2sc2ccccc23)cn1
IC50 (second compound 0.0316 µM): 1.88 µM | IC50 (second compound 0.1 µM): 1.37 µM | IC50 (second compound 0.316 µM): 0.708 µM | IC50 (second compound 1 µM): 0.397 µM | IC50 (second compound 3.16 µM): 0.129 µM | IC50 (second compound 10 µM): < 0.0316 µM | viability, T/C [1]: 94.7% | viability, T/C [2]: 100% | viability, T/C [3]: 97.5% | viability, T/C [4]: 59% | viability, T/C [5]: 42.5% | viability, T/C [6]: 17.5% | viability, T/C [7]: 86.7% | viability, T/C [8]: 81.3% | viability, T/C [9]: 69.9% | viability, T/C [10]: 56.6% | viability, T/C [11]: 34.8% | viability, T/C [12]: 14.3% | viability, T/C [13]: 72.3% | viability, T/C [14]: 67% | viability, T/C [15]: 60.4% | viability, T/C [16]: 42.8% | viability, T/C [17]: 32.3% | viability, T/C [18]: 7.31% | viability, T/C [19]: 55.5% | viability, T/C [20]: 61.1% | viability, T/C [21]: 55.8% | viability, T/C [22]: 34.9% | viability, T/C [23]: 23.5% | viability, T/C [24]: 6.14% | viability, T/C [25]: 57.2% | viability, T/C [26]: 49.1% | viability, T/C [27]: 45.6% | viability, T/C [28]: 34.2% | viability, T/C [29]: 26.6% | viability, T/C [30]: 5.25% | viability, T/C [31]: 46.4% | viability, T/C [32]: 42.2% | viability, T/C [33]: 45% | viability, T/C [34]: 34.5% | viability, T/C [35]: 22.2% | viability, T/C [36]: 4.67%

CC1COCCN1c1cc(C2(O)CC3CCC(C2)O3)c2cnn(-c3ccn[nH]3)c2n1 (stereo unspecified) + Cc1[nH]c2ccc(F)cc2c1-c1nc2c3cccnc3c3ncccc3c2[nH]1
IC50 (second compound 0.0316 µM): 0.0381 µM | IC50 (second compound 0.1 µM): 0.0339 µM | IC50 (second compound 0.316 µM): < 0.0316 µM | IC50 (second compound 1 µM): < 0.0316 µM | IC50 (second compound 3.16 µM): < 0.0316 µM | IC50 (second compound 10 µM): 0.0332 µM | viability, T/C [1]: 57.5% | viability, T/C [2]: 10.8% | viability, T/C [3]: 6.48% | viability, T/C [4]: 5.12% | viability, T/C [5]: 5.33% | viability, T/C [6]: 4.69% | viability, T/C [7]: 52.6% | viability, T/C [8]: 10.2% | viability, T/C [9]: 8.88% | viability, T/C [10]: 4.75% | viability, T/C [11]: 5.69% | viability, T/C [12]: 3.63% | viability, T/C [13]: 31.9% | viability, T/C [14]: 11.2% | viability, T/C [15]: 8.68% | viability, T/C [16]: 5.79% | viability, T/C [17]: 6.74% | viability, T/C [18]: 4.58% | viability, T/C [19]: 40.6% | viability, T/C [20]: 22.6% | viability, T/C [21]: 6.11% | viability, T/C [22]: 7.77% | viability, T/C [23]: 6.18% | viability, T/C [24]: 4.27% | viability, T/C [25]: 48.3% | viability, T/C [26]: 14.4% | viability, T/C [27]: 6.36% | viability, T/C [28]: 4.01% | viability, T/C [29]: 5.26% | viability, T/C [30]: 2.84% | viability, T/C [31]: 52% | viability, T/C [32]: 16.5% | viability, T/C [33]: 8.81% | viability, T/C [34]: 3.92% | viability, T/C [35]: 4.33% | viability, T/C [36]: 1.45%

CC1COCCN1c1cc(C2(O)CC3CCC(C2)O3)c2cnn(-c3ccn[nH]3)c2n1 (stereo unspecified) + Cc1cnc(CNC(=O)c2c(=O)c3ccc(N4CCCN(C)CC4)nc3n3c2sc2ccccc23)cn1
IC50 (second compound 0.0316 µM): < 0.0316 µM | IC50 (second compound 0.1 µM): < 0.0316 µM | IC50 (second compound 0.316 µM): < 0.0316 µM | IC50 (second compound 1 µM): < 0.0316 µM | IC50 (second compound 3.16 µM): < 0.0316 µM | IC50 (second compound 10 µM): < 0.0316 µM | viability, T/C [1]: 31.3% | viability, T/C [2]: 13.1% | viability, T/C [3]: 5.91% | viability, T/C [4]: 3.51% | viability, T/C [5]: 5.56% | viability, T/C [6]: 3.63% | viability, T/C [7]: 38.7% | viability, T/C [8]: 16.4% | viability, T/C [9]: 8.6% | viability, T/C [10]: 4.53% | viability, T/C [11]: 4.78% | viability, T/C [12]: 2.97% | viability, T/C [13]: 37.7% | viability, T/C [14]: 20.9% | viability, T/C [15]: 13.4% | viability, T/C [16]: 6.49% | viability, T/C [17]: 4.71% | viability, T/C [18]: 2.1% | viability, T/C [19]: 29.5% | viability, T/C [20]: 31.5% | viability, T/C [21]: 16.4% | viability, T/C [22]: 8.79% | viability, T/C [23]: 5.94% | viability, T/C [24]: 0.5% | viability, T/C [25]: 36.2% | viability, T/C [26]: 31% | viability, T/C [27]: 19.5% | viability, T/C [28]: 10.8% | viability, T/C [29]: 5.54% | viability, T/C [30]: 0.33% | viability, T/C [31]: 34.9% | viability, T/C [32]: 28.4% | viability, T/C [33]: 23.2% | viability, T/C [34]: 10.9% | viability, T/C [35]: 6.86% | viability, T/C [36]: 0.13%
